Reference: US8440656B2, “Methods of treating pulmonary diseases and disorders by modulating calcium/calmodulin dependent protein kinase II activity” (University of Iowa Research Foundation, priority 2009, dated 2013)
Read-outs that look alike come from different tables or passages of the source.

Experiments:
CaMKIIδ = CaMKIIδ (Homo sapiens, UniProt Q13557); conditions: cited from earlier work
[1] = system: ovalbumin-sensitized C6B2 mice (asthma model); assay: Ovalbumin-sensitized mouse asthma model, intranasal KN-93; type: in vivo; conditions: for airway resistance (Flexivent) on Methacholine challenge: KN93 100 mM intranasal during ovalbumin inhalations, at 50 and 100 μg/ml Methacholine, p<0.05, vs untreated; for Bronchoalveolar lavage eosinophils: KN93 intranasal, compared with untreated control mice
Experimental: (§1) FIG. 4. Effects of inhaled KN-93 on asthma. (A) C6B2 mice were sensitized by two i.p. injections of ovalbumin, followed by three 30 min inhalations of ovalbumin in the presence or absence of the CaMKII inhibitor KN93 (100 μM) intranasal. Airway reactivity was determined by Methacholine challenge using the Flexivent-measured airway resistance as the readout. (B) Bronchoalveolar lavage eosinophils in mice treated with KN 93 compared with untreated control mice.
In order to test the concept that CaMKII inhibition can reduce asthma symptoms, a validated asthma model was utilized. This model induces airway inflammation and hyper-reactivity by intra-peritoneal sensitization and inhalational challenge with the experimental allergen, ovalbumin. The “asthmatic” mice are then characterized by a graded inhalational challenge protocol using aerosolized methacholine. (See Jain et al., 2003). This approach is similar to that used in humans with clinical asthma.
as §1, with “C6B2” for “FIG. 4. Effects of inhaled KN-93 on asthma. (A) C6B2”, “mM)” for “μM)”, “[…] (* p<0.05, n=4 per group) (FIG. 4A).” for “(B)”, “eosinophils (a measure of allergic airway inflammation) were reduced” for “eosinophils”, “mice (FIG. 4B).” for “mice.”

Chain of CaMKIIδ (Q13557 whole entry): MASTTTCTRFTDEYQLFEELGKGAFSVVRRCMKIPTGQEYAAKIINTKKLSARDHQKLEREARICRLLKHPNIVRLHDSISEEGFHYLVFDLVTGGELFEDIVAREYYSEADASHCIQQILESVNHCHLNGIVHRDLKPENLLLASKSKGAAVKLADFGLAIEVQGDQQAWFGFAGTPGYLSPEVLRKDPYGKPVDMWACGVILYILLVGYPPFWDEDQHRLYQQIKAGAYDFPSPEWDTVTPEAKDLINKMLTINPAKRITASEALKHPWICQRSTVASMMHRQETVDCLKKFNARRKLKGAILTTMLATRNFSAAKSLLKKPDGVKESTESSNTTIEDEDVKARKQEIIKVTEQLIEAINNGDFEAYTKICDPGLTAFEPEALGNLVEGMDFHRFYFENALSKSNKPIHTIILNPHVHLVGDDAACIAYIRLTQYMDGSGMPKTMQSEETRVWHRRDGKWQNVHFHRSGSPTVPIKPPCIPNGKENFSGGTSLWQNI

| Structure (SMILES) | IC50 (CaMKIIδ) [µM] | also measured |
| --- | --- | --- |
| NCCCn1cc(C2=C(c3csc4ccccc34)C(=O)NC2=O)c2ccccc21 [Compound 2] |  | IC50 (CaMKIIδ; old, read-out: IC50 (μM) old): < 0.039 µM |
| CC(C)(C)OC(=O)NCCCn1cc(C2=C(c3csc4ccccc34)C(=O)NC2=O)c2ccccc21 [Compound 13b] | > 20 |  |
| CC(C)(C)OC(=O)NCCCn1cc(C2=C(c3ccccc3)C(=O)NC2=O)c2ccccc21 [Compound 13g] | > 20 |  |
| CC(C)(C)OC(=O)NCCCn1cc(C2=C(c3cccs3)C(=O)NC2=O)c2ccccc21 [Compound 13l] | > 20 |  |
| NCCCn1cc(C2=C(c3ccc4ccccc4n3)C(=O)NC2=O)c2ccccc21 [Compound 14f] | > 20 |  |
| CN1C(=O)C(c2c[nH]c3ccc(Br)cc23)=C(c2cn(CCCN)c3ccccc23)C1=O [Compound 16t] | > 20 |  |
| COc1ccc(S(=O)(=O)N(CCO)c2ccccc2CN(C)C/C=C/c2ccc(Cl)cc2)cc1 [KN-93] |  | airway resistance (Flexivent) on Methacholine challenge [1]: reduced airway resistance measurements; airway resistance (Flexivent) on Methacholine challenge ([1]; listed as KN93): significant reduction; Bronchoalveolar lavage eosinophils [1]: reduced eosinophils; Bronchoalveolar lavage eosinophils ([1]; listed as KN 93): reduced |
